PMC9433906, “Evaluation of the biotechnological potential of peptide Cupiennin 1a and analogs” (Frontiers in Microbiology, 2022)
≈ marks a conversion by molar mass, not a printed value. Where a SMILES comes first, the peptide text is derived from it.

Columns and labels:
S. aureus (ATCC 25923) = format: cell-based, Staphylococcus aureus; details: S. aureus (ATCC25923); 5×10^5 CFU.ml^−1, Mueller-Hinton Broth, 37°C, 24 h, OD 595 nm, biological triplicates
Procedure: (§1) Susceptibility tests were performed using clinical isolates of Klebsiella pneumoniae carbapenemase (KPC 1410503) and methicillin-resistant S. aureus (MRSA 3730592). Tests were also performed with ATCC (American Type Culture Collection) isolates of K. pneumoniae (ATCC 13883) and S. aureus (ATCC 25923).
(§2) Two multidrug-resistant clinical isolates and two ATCC isolates were chosen to perform microbial susceptibility testing as models for studies with bacteria susceptible to antimicrobials found in the Gram-Positive and Gram-Negative groups of bacteria.
(§3) The broth microdilution method was performed according to the Clinical and Laboratory Standards Institute (CLSI) M07-A10 protocol to determine the Minimum Inhibitory Concentration (MIC; [Clinical Laboratory Standards Institute, 2015]). The assay was performed on 96-well microplates (TPP, United States), containing 5×10^5 CFU.ml^−1 of each tested bacterium per well and different peptide micromolar concentrations (Table 1) in a final volume of 100 μl of Mueller-Hinton Broth (MH). Negative control was represented by bacteria incubated in MH medium, while positive control was represented by culture incubated in MH medium with Amikacin. Plates were kept under agitation at 37°C in a BioTek spectrophotometer (PowerWaveTM HT Microplate Reader) with optical density (OD) readings at 595 nm every 30 min for 24 h. Inhibition results were analyzed using GraphPad Prism 8 software by comparing the OD from negative control wells (100%) to those containing peptides. All tests were performed in biological triplicates.

[1] = test system: Klebsiella pneumoniae carbapenemase (KPC 1410503); format: cell-based; details: K. pneumoniae carbapenemase—KPC clinical isolate 1410503; 5×10^5 CFU.ml^−1, Mueller-Hinton Broth, 37°C, 24 h, OD 595 nm, biological triplicates; NE = MIC value not found
Procedure: as §1, §2, §3

[2] = test system: K. pneumoniae (ATCC 13883); format: cell-based, Klebsiella pneumoniae; details: K. pneumoniae (ATCC13883); 5×10^5 CFU.ml^−1, Mueller-Hinton Broth, 37°C, 24 h, OD 595 nm, biological triplicates
Procedure: as §1, §2, §3

[3] = test system: C. parapsilosis (ATCC22019); assay: Broth microdilution MIC (CLSI M27-A3 with modifications); format: cell-based, Candida parapsilosis; details: 2.5 × 10^3 CFU.ml^−1, Sabouraud medium, 24 h at 30°C, absorbance 595 nm
Procedure: The broth microdilution method was performed according to the Clinical and Laboratory Standards Institute Guideline M27-A3 with modifications to determine the Minimum Inhibitory Concentration (MIC; [Clinical Laboratory Standards Institute, 2008]).
Initially, the fungus C. parapsilosis (ATCC22019) was grown in a Petri dish containing Sabouraud Dextrose Agar medium (Dextrose 40 g/L; Peptic digestion of animal tissue 5.0 g.L^−1; and Agar 15 g.L^−1) for 48 h. Subsequently, a pre-inoculum was performed from a yeast colony that was placed in 10 ml of liquid Sabouraud medium and incubated for 16 h at 28°C, with a constant rotation of 200 rpm. After the incubation period, 2.5 × 10^3 CFU.ml^−1 of fungus per well was incubated with different peptide micromolar concentrations (Table 1) to assess the MIC for each peptide.
Fungal cells incubated with Sabouraud medium were used as negative control, while positive control was represented by fungal cells incubated in Sabouraud medium and amphotericin B (10 μM). Subsequently, plates were incubated for 24 h at 30°C. After this period, the absorbance was read (595 nm) in a BioTek spectrophotometer (PowerWaveTM HT Microplate Reader), and data of antifungal activity with percentage of inhibition of peptides were plotted in GraphPad Prism 8 Software.

Compound | Minimum inhibitory concentration (MIC) (S. aureus (ATCC 25923)) [µM] | Minimum inhibitory concentration (MIC) [1] [µM] | Minimum inhibitory concentration (MIC) [2] [µM] | Minimum inhibitory concentration (MIC) [3] [µM]
CC(C)C[C@H](NC(=O)[C@H](C)NC(=O)CNC(=O)[C@H](Cc1ccccc1)NC(=O)CN)C(=O)N[C@@H](Cc1ccccc1)C(=O)N[C@@H](CCCCN)C(=O)N[C@@H](CCCNC(=N)N)C(=O)N[C@@H](CC(C)C)C(=O)N[C@@H](C)C(=O)N[C@@H](CCCCN)C(=O)N[C@@H](C)C(=O)N[C@H](C(=O)N[C@@H](C)C(=O)N[C@@H](CCCCN)C(=O)N[C@@H](C)C(=O)N[C@H](C(=O)N[C@@H](C)C(N)=O)C(C)C)C(C)C [Peptide R8b] (H-GFGALFKRLAKAVAKAVA-NH2) | 17.60 (≈ 32 µg/mL) | 35.21 (≈ 64 µg/mL) | 17.60 (≈ 32 µg/mL) | 35.21 (≈ 64 µg/mL)
CC(C)C[C@H](NC(=O)[C@H](C)NC(=O)CNC(=O)[C@H](Cc1ccccc1)NC(=O)CN)C(=O)N[C@@H](Cc1ccccc1)C(=O)N[C@@H](CCCCN)C(=O)N[C@@H](Cc1ccccc1)C(=O)N[C@@H](CC(C)C)C(=O)N[C@@H](C)C(=O)N[C@@H](CCCCN)C(=O)N[C@@H](C)C(=O)N[C@H](C(=O)N[C@@H](C)C(=O)N[C@@H](CCCCN)C(=O)N[C@@H](C)C(=O)N[C@H](C(=O)N[C@@H](C)C(N)=O)C(C)C)C(C)C [Peptide R6b] (H-GFGALFKFLAKAVAKAVA-NH2) | 17.7 (≈ 32 µg/mL) | – | 35.4 (≈ 64 µg/mL) | 70.8 (≈ 128 µg/mL)
CC(C)C[C@H](NC(=O)[C@H](CCCNC(=N)N)NC(=O)[C@H](CCCCN)NC(=O)[C@H](Cc1ccccc1)NC(=O)[C@H](CC(C)C)NC(=O)[C@H](CCCCN)NC(=O)CNC(=O)[C@H](Cc1ccccc1)NC(=O)CN)C(=O)N[C@@H](C)C(=O)N[C@@H](CCCCN)C(=O)N[C@@H](C)C(=O)N[C@H](C(=O)N[C@@H](C)C(=O)N[C@@H](CCCCN)C(=O)N[C@@H](C)C(=O)N[C@H](C(=O)N[C@@H](C)C(N)=O)C(C)C)C(C)C [Peptide R10b] (H-GFGKLFKRLAKAVAKAVA-NH2) | 8.53 (≈ 16 µg/mL) | 17.07 (≈ 32 µg/mL) | 17.07 (≈ 32 µg/mL) | 34.15 (≈ 64 µg/mL)
CC(C)C[C@H](NC(=O)[C@H](C)NC(=O)CNC(=O)[C@H](Cc1ccccc1)NC(=O)CN)C(=O)N[C@@H](Cc1ccccc1)C(=O)N[C@@H](CCCCN)C(=O)N[C@@H](CCCNC(=N)N)C(=O)N[C@@H](CC(C)C)C(=O)N[C@@H](C)C(=O)N[C@@H](CCCCN)C(=O)N[C@@H](CCCCN)C(=O)N[C@H](C(=O)N[C@@H](C)C(=O)N[C@@H](CCCCN)C(=O)N[C@H](C(=O)N[C@H](C(=O)N[C@@H](C)C(N)=O)C(C)C)[C@@H](C)O)C(C)C [Peptide R3b] (H-GFGALFKRLAKKVAKTVA-NH2) | 67.21 (≈ 128 µg/mL) | – | 67.21 (≈ 128 µg/mL) | 33.60 (≈ 64 µg/mL)
